Results reported in patent US12521393B2, “Cytotoxicity targeting chimeras for CCR2-expressing cells” (GLAXOSMITHKLINE INTELLECTUAL PROPERTY DEVELOPMENT LIMITED, priority 2021, dated 2026).
Values joined by “and” are separate entries in the source; they are usually repeats but may differ in a detail not shown here. Identical values can stand only once.

Columns and labels:
[1] = system: endogenous target monocytes in human PBMC; experiment: PBMC ex vivo monocyte depletion flow cytometry assay (Example 200); assay type: cell-based; conditions: with anti-cotinine antibody (SEQ ID NO: 11/12), 18-24 hours, EC50 in molar; for EC50: read-out: Ex Vivo Depletion Assay pEC50 (converted)
In short: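 Monocyte depletion is reported as pEC50, averaged or given individually across runs, and read by flow cytometry staining CD45, CD14 and CD4 with a viability dye. Compounds, diluted four-fold over 11 points from 1 mM DMSO stocks, were combined with 30 μg/mL Fc-enhanced anti-cotinine antibody and human PBMC, then incubated 18-24 h at 37° C.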

[2] = target: T1, CHOK1 cells engineered to overexpress human CCR2 (Homo sapiens, UniProt P41597); experiment: Antibody dependent cellular cytotoxicity (ADCC) reporter assay (Example 199); assay type: cell-based; conditions: with anti-cotinine antibody (SEQ ID NO: 11/12), Jurkat FcγRIIIa NFAT-luciferase reporter cells, 12-18 hours, EC50 in molar, average or individual runs; for EC50: read-out: ADCC Reporter Assay pEC50 (converted)
T1 construct: expressed in transfected cells; host or cells: CHOK1
Description: An antibody dependent cellular cytoxocity reporter assay was conducted using the following four assay components: (i) ARM compound of Formula (I) targeting CCR2 (concentrations ranging from […] to 10 μM) (ii) anti-cotinine antibody having a heavy chain sequence of SEQ ID NO: 11 and a light chain sequence of SEQ ID NO: 12 (rabbit variable region with human IgG1 Fc domain containing a DE mutation (S239D/1332E)) (concentrations ranging from 0.01 μg/mL to 200 μg/mL); (iii) target cells: CHOK1 cells engineered to overexpress either human CCR2 (typically 1000-20,000 cells per well) and (iv) reporter cells: Jurkat cells engineered to express FcγRIIIa with the reporter gene luciferase under the control of the NFAT promoter (typically 3000-75,000 cells per well). Reagents were combined in a final volume of 20 μL in a 384-well tissue culture treated plate. All four assay components were incubated together for about 12-18 hours. Thereafter, BioGlo Detection reagent (Promega) was added to the wells to lyse the cells and provide a substrate for the luciferase reporter protein. Luminescence signal was measured on a microplate reader and signal: background was calculated by dividing the signal of a test well by the signal obtained when no heterobivalent compound of Formula (I) was added. EC50 calculations were done using Graphpad Prism Software, specifically a nonlinear regression curve fit (Y=Bottom+(Top−Bottom)/(1+10A((LogEC50−X)*HillSlope))).
ARMs compounds of Formula (I) of the invention were tested for ADCC activity in the above assay in or more experimental runs and the results are shown in Table 3 below. Potency of the compounds of Formula (I) of the invention is reported as a pEC50 value. The pEC50 value is the negative log of the EC50 value, wherein the EC50 value is the half maximal effective concentration measured in molar (M). For compounds tested in more than one experimental run, the pEC50 value is reported as an average.

[3] = target: anti-cotinine antibody (SEQ ID NO: 11/12, rabbit variable region with human IgG1 Fc DE mutation); experiment: SPR binding of anti-cotinine antibody to ARM compounds, Biacore T200, 37° C. (Example 202); conditions: SPR Biacore T200, 37° C., pH 7.4, antibody SEQ ID NO: 11/12 captured on protein A; Kd in molar
In short: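 Run at 37 °C in 10 mM HEPES pH 7.4, 150 mM NaCl, 0.005% P20, 1% DMSO, with compounds titrated from 200 nM (five 3-fold steps) over protein A–captured antibody. A 1:1 kinetic model on double-referenced data gave rate constants, Kd as koff/kon and residence time 1/koff; results as pKd, run-averaged.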

[4] = Blood drug concentration analysis by LC-MS/MS after IV dosing with anti-cotinine antibody (Example 201); assay type: in vivo; conditions: C57 background, human CCR2 knock-in, mouse; hCCR2 knock-in mice, IV 0.1 mpk compound + 10 mpk anti-cotinine antibody, whole blood, 48 hours post-dose; read-out: Exposure of Compound of Formula (I) 48 hours post-dose
Description: After bleeding, each mouse was sacrificed by cervical dislocation. […] Flow Cytometry Analysis:
Samples were analyzed on Q-Trap. […] The total run time was 2 minutes.

[5] = system: CCR2 expressing cells (CD11b+Ly6c+Hi) in peripheral blood; experiment: In vivo depletion assay, flow cytometry of peripheral blood (Example 201); set-up: species or system human CCR2 knock-in mice (C57 background); conditions: hCCR2 knock-in mice, IV 0.1 mpk compound + 10 mpk anti-cotinine antibody (SEQ ID NO: 13/14), peripheral blood at 48 hr
In short: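 Flow cytometry of blood collected at study termination quantified percent depletion of CD11b+Ly6c+Hi cells and CCR2 expression, using surface markers CD45, CD3, CD11b, Ly6C, human CCR2 after Fc block, with 7AAD viability stain. Compound given in saline:DMSO:PBS formulation, optionally combined with anti-cotinine antibody, incubated 30 min before administration.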

Question: What does the source list for `CN1C(=O)C[C@H](C(=O)NCCCOCCCNC(=O)CCCC(=O)NC2CCC(C(=O)N[C@@H]3C[C@H](NC(C)(C)C)CC[C@@H]3N3CC[C@H](Nc4ncnc5ccc(C(F)(F)F)cc45)C3=O)CC2)[C@H]1c1cccnc1` (stereo partly drawn) [Example 22, N1-((1R,4r)-4-(((1R,2S,5R)-5-(tert-Butylamino)-2-((S)-2-oxo-3-((6-(trifluoromethyl)quinazolin-4-yl)amino)pyrrolidin-1-yl)cyclohexyl)carbamoyl)cyclohexyl)-N5-(3-(3-((2S,3S)-1-methyl-5-oxo-2-(pyridin-3-yl)pyrrolidine-3-carboxamido)propoxy)propyl)glutaramide]?
Answer: Ex Vivo Depletion Assay pEC50 [1]: 9.2; ADCC Reporter Assay pEC50 [2]: 9 and 9.3; pKd of Antibody for ARM Compound of Formula (I) [3]: 9.2495

Question: What does the source list for `CC(C)N(C)[C@@H]1CC[C@H](N2CC[C@H](Nc3ncnc4ccc(C(F)(F)F)cc34)C2=O)[C@H](NC(=O)[C@H]2CC[C@H](N3CCN(S(=O)(=O)C4CCN(C(=O)[C@H](C)NC(=O)[C@H]5CC(=O)N(C)[C@@H]5c5cccnc5)CC4)CC3)CC2)C1` [Example 70, (2S,3S)-N-((S)-1-(4-((4-((1R,4S)-4-(((1R,2S,5R)-5-(isopropyl(methyl)amino)-2-((S)-2-oxo-3-((6-(trifluoromethyl)quinazolin-4-yl)amino)pyrrolidin-1-yl)cyclohexyl)carbamoyl)cyclohexyl)piperazin-1-yl)sulfonyl)piperidin-1-yl)-1-oxopropan-2-yl)-1-methyl-5-oxo-2-(pyridin-3-yl)pyrrolidine-3-carboxamide]?
Answer: EC50 [1]: 0.1 nM; concentration at 48 h [4]: 2.3 ng/mL; EC50 [2]: 0.794 nM; % Depletion of CCR2 expressing cells [5]: 30.51%

Question: Which EC50 [1] does the source give for `CC(C)N(C)[C@@H]1CC[C@H](N2CC[C@H](Nc3ncnc4ccc(C(F)(F)F)cc34)C2=O)[C@H](NC(=O)[C@H]2CC[C@@H](N3CCN(S(=O)(=O)C4CCN(C(=O)[C@H](C)NC(=O)[C@H]5CC(=O)N(C)[C@@H]5c5cccnc5)CC4)CC3)CC2)C1` [Example 71, (2S,3S)-N-((S)-1-(4-((4-((1S,4R)-4-(((1R,2S,5R)-5-(Isopropyl(methyl)amino)-2-((S)-2-oxo-3-((6-(trifluoromethyl)quinazolin-4-yl)amino)pyrrolidin-1-yl)cyclohexyl)carbamoyl)cyclohexyl)piperazin-1-yl)sulfonyl)piperidin-1-yl)-1-oxopropan-2-yl)-1-methyl-5-oxo-2-(pyridin-3-yl)pyrrolidine-3-carboxamide] here?
Answer: The EC50 was 0.794 nM.

Question: And the concentration at 48 h [4]?
Answer: Its concentration at 48 h is 1 ng/mL.

Question: What about the EC50 [2] of the same molecule?
Answer: Its EC50 is 10 nM.

Question: And the “% Depletion of CCR2 expressing cells” value [5]?
Answer: The value was 35.25%.
